Assay results published in patent US8822645B2, “Prostaglandin E2 dual variable domain immunoglobulins and uses thereof” (AbbVie Inc., priority 2008, dated 2014).

Assays:
[1] = tested on: C57.BL/6 mice, carrageenan-induced footpad edema; test: Carrageenan-induced footpad edema model; assay type: in vivo, mouse; details: 3 mg/kg, p.o.
Protocol: Carrageenan-Induced Footpad Edema is an acute rodent model of innate immune function. Intradermal (ID) injection of an inflammatory agent causes a rapid influx of neutrophils and fluid edema, which peaks at approximately 4 hours, followed by an influx of macrophages and monocytes, which peaks at approximately 48 hours. C57.BL/6 mice (8-10-week-old, Jackson Laboratories, Bar Harbor, Me.) were injected ID in the rear footpad with 30 μL of either PBS (left) or λ-carrageenen (Sigma Aldrich, St. Louis, Mo.) in PBS (right) at a concentration of 5.0 mg/mL (150 μg/mouse). […] Significant difference for paw thickness was determined by comparing mean paw swelling for each treatment group to vehicle in a Student's two-tailed t-test.
The endpoint measured was the difference in paw swelling (edema) between right and left paws 4 hours after treatment.

human TNFα [2] = target: T1, human TNFα (Homo sapiens, UniProt P01375); test: BIAcore assay, TNFα binding kinetics and affinity
Protocol: The BIACORE assay (BIAcore, Inc, Piscataway, N.J.) determines the affinity of antibodies or DVD-Ig with kinetic measurements of on-rate and off-rate constants. Binding of antibodies or DVD-Ig to a target antigen (for example, a purified recombinant target antigen) is determined by surface plasmon resonance-based measurements with a BIAcore® 3000 instrument (BIAcore® AB, Uppsala, Sweden) using running HBS-EP (10 mM HEPES [pH 7.4], 150 mM NaCl, 3 mM EDTA, and 0.005% surfactant P20) at 25° C. All chemicals are obtained from BIAcore® AB (Uppsala, Sweden) or otherwise from a different source as described in the text. […] The association and dissociation rate constants, kon (M^−1 s^−1) and koff (s^−1) are determined under a continuous flow rate of 25 μl/min. […] The equilibrium dissociation constant (M) of the reaction between antibodies or DVD-Igs and the target antigen is then calculated from the kinetic rate constants by the following formula: KD=koff/kon. Binding is recorded as a function of time and kinetic rate constants are calculated. In this assay, on-rates as fast as 10^6M^−1 s^−1 and off-rates as slow as 10^−6 s^−1 can be measured. […]

[3] = tested on: human TNFα transgenic B6.Cg(SJL)-Tg(TNF) N21+ mice; test: Human TNFα transgenic induced arthritis model; assay type: in vivo, mouse; details: 30 mg/kg
Protocol: Human TNFα transgenic B6.Cg(SJL)-Tg(TNF) N21+ mice (40 male and 40 females) (Taconic, Hudson, N.Y.) at 4 weeks age were divided into 10 groups of 8 mice (4 male and 4 females/group). Each week, starting from week 5 until week 12 of age the morphology of the rear ankle joints of the mice were evaluated and scored for signs and symptoms of arthritis. Arthritic scores were assigned as follows. • 0=no arthritis (normal appearance and flexion) • 1=mild arthritis (joint distortion) • 2=moderate arthritis (swelling, joint deformation); and • 3=severe arthritis (ankylosis detected on flexion and severely impaired movement)
Animals were randomized to achieve approximately similar mean arthritic score (MAS) for all groups at week 9 at first signs of symptoms. Animals were then treated i.p. twice a week starting from week 10 of age until week 12 of age. Mice in group 1 served as untreated control were administered PBS.

Dynamic light scattering = assay type: physicochemical; details: 2 mg/mL in PBS
Protocol: Samples were centrifuged at 10,000 RPM for 10 minutes before measured on DynaPro-801 Dynamic light scattering system.

human TNFα [4] = target: T1, human TNFα; test: L929 assay (TNFα induced death of L929 cells); assay type: cell-based, mouse; details: read-out: TNFα Cellular Potency IC50

T1 sequence (P01375 77-233 limits assumed): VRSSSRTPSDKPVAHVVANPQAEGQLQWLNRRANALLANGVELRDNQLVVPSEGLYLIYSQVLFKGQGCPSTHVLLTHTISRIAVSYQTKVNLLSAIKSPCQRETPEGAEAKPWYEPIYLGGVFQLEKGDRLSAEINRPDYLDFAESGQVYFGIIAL

## COc1ccc2c(c1)c(CC(=O)O)c(C)n2C(=O)c1ccc(Cl)cc1 [Indomethacin, reference compound]
[1]
  % Inhibition: 57 ± 3.5%
[1]; 4 hours post carrageenan
  Δ Paw Swelling: 0.486 ± 0.03 mm

## D2E7: human anti-TNFα monoclonal antibody, parent of the DVD-Igs [reference compound]
Human TNFα [2]
  Kd: 0.027 nM
[3]
  maximal efficacy (inhibition of AUC of the mean arthritis score): 59%
Dynamic light scattering
  hydrodynamic radius: 5.46 nm
Human TNFα [4]
  IC50: 0.041 nM
